Here are results for 34 compounds from ChEMBL document CHEMBL4477206, “Benzylpiperidine-Linked Diarylthiazoles as Potential Anti-Alzheimer's Agents: Synthesis and Biological Evaluation” (J Med Chem, 2016).

One may read the inhibition as how much of the control response was suppressed. A higher inhibition goes with strong suppression. For orientation: IC50 means the point on the concentration scale where inhibition reaches its midpoint. By viability is commonly meant a per cent measure of how many cells are alive, often set against a control.

The target in data set [1] is T1, Acetylcholinesterase (Homo sapiens, UniProt P22303). To be noted: at 10 µM.
T1 sequence (P22303 whole entry): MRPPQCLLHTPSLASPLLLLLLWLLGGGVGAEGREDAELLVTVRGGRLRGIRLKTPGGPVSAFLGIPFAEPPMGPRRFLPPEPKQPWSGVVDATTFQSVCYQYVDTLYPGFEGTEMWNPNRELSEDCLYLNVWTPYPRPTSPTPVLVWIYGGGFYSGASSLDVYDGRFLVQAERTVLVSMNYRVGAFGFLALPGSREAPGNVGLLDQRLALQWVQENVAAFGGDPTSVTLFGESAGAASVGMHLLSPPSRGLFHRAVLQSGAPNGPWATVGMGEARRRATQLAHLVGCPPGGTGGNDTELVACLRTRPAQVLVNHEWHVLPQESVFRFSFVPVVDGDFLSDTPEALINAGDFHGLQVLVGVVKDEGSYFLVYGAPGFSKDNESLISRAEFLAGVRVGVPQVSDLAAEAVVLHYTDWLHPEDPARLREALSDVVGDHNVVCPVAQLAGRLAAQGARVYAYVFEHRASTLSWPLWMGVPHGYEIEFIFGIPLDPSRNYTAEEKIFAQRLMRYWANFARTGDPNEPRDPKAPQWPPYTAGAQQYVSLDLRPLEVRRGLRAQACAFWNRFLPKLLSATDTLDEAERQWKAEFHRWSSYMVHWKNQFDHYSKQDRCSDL
Description: Inhibition of human erythrocyte AChE-induced Abeta (1 to 42) aggregation at 10 uM incubated for 24 hrs by thioflavin-T fluorescence assay
The next data set addresses Cholinesterase (Equus caballus, UniProt P81908). Put plainly: Inhibition of equine serum BuChE using BTCI as substrate preincubated for 30 mins followed by substrate addition measured after 30 mins by Ellman assay. A general note: Ellman's reagent forms a yellow product with free thiols.
The target of data set [2] is T1, Acetylcholinesterase. Briefly: Inhibition of human erythrocyte AChE using ATCI as substrate preincubated for 30 mins followed by substrate addition measured after 30 mins by Ellman assay.
The nature of data set [3]: in vitro. The note with it: human.
Description: Cytotoxicity against human SH-SY5Y cells assessed as cell viability at 80 uM after 24 hrs by MTT assay
The nature of data set [4]: in vitro. The note with it: human. The source holds these as a separate data set.
Description: Cytotoxicity against human SH-SY5Y cells assessed as cell viability at 40 uM after 24 hrs by MTT assay
Data set [5] can be described thus: Permeability of the compound at 100 ug/ml incubated for 120 mins by PAMPA. The class given is ADME. To be noted: read-out: Peff. Background: The PAMPA barrier holds no transporters, so it reflects passive diffusion.

Bounds are passed on as bounds.

Sequence of Cholinesterase (P81908 whole entry): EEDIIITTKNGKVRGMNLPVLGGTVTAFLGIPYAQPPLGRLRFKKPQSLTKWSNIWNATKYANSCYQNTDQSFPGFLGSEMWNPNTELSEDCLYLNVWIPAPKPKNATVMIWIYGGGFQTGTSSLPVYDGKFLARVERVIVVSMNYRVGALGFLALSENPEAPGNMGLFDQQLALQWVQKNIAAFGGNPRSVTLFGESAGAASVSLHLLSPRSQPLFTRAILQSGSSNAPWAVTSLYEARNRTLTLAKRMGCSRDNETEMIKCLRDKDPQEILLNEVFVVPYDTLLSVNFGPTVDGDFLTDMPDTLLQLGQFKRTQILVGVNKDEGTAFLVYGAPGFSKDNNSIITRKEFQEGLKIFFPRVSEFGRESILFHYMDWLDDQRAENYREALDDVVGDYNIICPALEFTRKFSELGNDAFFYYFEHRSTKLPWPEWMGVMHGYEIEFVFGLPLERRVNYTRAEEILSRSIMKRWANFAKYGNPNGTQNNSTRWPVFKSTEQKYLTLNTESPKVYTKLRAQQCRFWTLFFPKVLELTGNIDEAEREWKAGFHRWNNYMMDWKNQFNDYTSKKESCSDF

As for `COc1ccc(CN2CCC(Nc3nc(-c4ccc(OC)cc4)c(-c4ccc(OC)cc4)s3)CC2)cc1`, the inhibition at Acetylcholinesterase [1] is 11.4%. In addition, the IC50 stood at 2530 nM against Cholinesterase and 770 nM against Acetylcholinesterase [2]. Moreover, the viability at 24 h, 80 µM in “in vitro [3]” (SH-SY5Y cells) was found to be 89.5%. In the data set “in vitro [4]” (SH-SY5Y cells), this compound had a viability at 24 h, 40 µM of 92.1%. The Papp at 2 h, 100 ug/ml in data set [5] is 10.3 ×10⁻⁶ cm/s.
Turning to `Cc1ccc(-c2nc(NC(=O)C3CCN(Cc4ccc(C#N)cc4)CC3)sc2-c2ccc(C)cc2)cc1`, the half-maximal inhibitory concentration (IC50) at Cholinesterase was 5320 nM; against Acetylcholinesterase [2], 1280 nM.
`Fc1cc(F)cc(CN2CCC(CNc3nc(-c4ccc(Cl)cc4)c(-c4ccc(Cl)cc4)s3)CC2)c1` registered an inhibition against Acetylcholinesterase [1] of 19.4%. Moreover, the IC50 against Cholinesterase was found to be 820 nM; on Acetylcholinesterase [2], 630 nM. For the same compound, the viability at 24 h, 80 µM in “in vitro [3]” (SH-SY5Y cells) is 91.7%. The compound further came in with a viability at 24 h, 40 µM in the data set “in vitro [4]” (SH-SY5Y cells) of 92.4%. In addition, the Papp at 2 h, 100 ug/ml in data set [5] was found to be 12.5 ×10⁻⁶ cm/s.
In the case of `O=C(Nc1nc(-c2ccc(Cl)cc2)c(-c2ccc(Cl)cc2)s1)C1CCN(Cc2cc(F)cc(F)c2)CC1`, at Acetylcholinesterase [1], the inhibition came out at 12%. In addition, the IC50 was found to be 3030 nM on Cholinesterase and 640 nM at Acetylcholinesterase [2]. In the data set “in vitro [3]” (SH-SY5Y cells), the viability at 24 h, 80 µM stood at 92.8%. Moreover, the viability at 24 h, 40 µM in the data set “in vitro [4]” (SH-SY5Y cells) turned out to be 95.6%. The Papp at 2 h, 100 ug/ml in data set [5] was 8.8 ×10⁻⁶ cm/s.
In the case of `Cc1ccc(CN2CCC(Nc3nc(-c4ccc(Cl)cc4)c(-c4ccc(Cl)cc4)s3)CC2)cc1`, the concentration for half-maximal inhibition (IC50) at Cholinesterase is above 10000 nM; on Acetylcholinesterase [2] it was 3190 nM.
With `COc1ccc(-c2nc(NCC3CCN(Cc4ccccc4C)CC3)sc2-c2ccc(OC)cc2)cc1`, at Acetylcholinesterase [1], the inhibition is 25.6%. Further, the half-maximal inhibitory concentration (IC50) came to 2210 nM against Cholinesterase and 590 nM against Acetylcholinesterase [2]. In “in vitro [3]” (SH-SY5Y cells), this compound displayed a viability at 24 h, 80 µM of 87.2%. Also, in the data set “in vitro [4]” (SH-SY5Y cells), the viability at 24 h, 40 µM turned out to be 91.6%. In data set [5], the Papp at 2 h, 100 ug/ml is 12.3 ×10⁻⁶ cm/s.
On Acetylcholinesterase [1], `COc1ccc(-c2nc(NC3CCN(Cc4ccc(C(F)(F)F)cc4)CC3)sc2-c2ccc(OC)cc2)cc1` had an inhibition of 18.9%. Further, the results for the half-inhibitory concentration (IC50) against Cholinesterase and against Acetylcholinesterase [2] were 1680 nM and 750 nM, respectively. This compound registered a viability at 24 h, 80 µM in “in vitro [3]” (SH-SY5Y cells) of 90.4%. In “in vitro [4]” (SH-SY5Y cells), this compound gave a viability at 24 h, 40 µM of 94.5%. Moreover, in data set [5], the Papp at 2 h, 100 ug/ml is 8.6 ×10⁻⁶ cm/s.
Turning to `COc1ccc(-c2nc(NCC3CCN(Cc4c(F)cccc4Cl)CC3)sc2-c2ccc(OC)cc2)cc1`, the inhibition at Acetylcholinesterase [1] turned out to be 27.2%. The IC50 on Cholinesterase came out at 2150 nM; at Acetylcholinesterase [2], 360 nM. For the same compound, the viability at 24 h, 80 µM in “in vitro [3]” (SH-SY5Y cells) came out at 87.1%. Moreover, the viability at 24 h, 40 µM in “in vitro [4]” (SH-SY5Y cells) was 94.2%. Moreover, the Papp at 2 h, 100 ug/ml in data set [5] was found to be 12.2 ×10⁻⁶ cm/s.
Take `COc1ccc(-c2nc(NC(=O)C3CCN(Cc4ccccc4C#N)CC3)sc2-c2ccc(OC)cc2)cc1`: the IC50 against Cholinesterase came to 3580 nM; against Acetylcholinesterase [2], 2800 nM.
On to `COc1ccc(-c2nc(NC(=O)C3CCN(Cc4cccc(F)c4)CC3)sc2-c2ccc(OC)cc2)cc1`, for which the inhibition at Acetylcholinesterase [1] turned out to be 21.2%. For the same compound, the IC50 was 1540 nM on Cholinesterase and 570 nM against Acetylcholinesterase [2]. In addition, in “in vitro [3]” (SH-SY5Y cells), the viability at 24 h, 80 µM turned out to be 90.3%. In the data set “in vitro [4]” (SH-SY5Y cells), this compound had a viability at 24 h, 40 µM of 94%. The Papp at 2 h, 100 ug/ml in data set [5] is 12.5 ×10⁻⁶ cm/s.
In the case of `O=C(Nc1nc(-c2ccc(Cl)cc2)c(-c2ccc(Cl)cc2)s1)C1CCN(Cc2ccc(F)cc2Cl)CC1`, the IC50 at Cholinesterase was above 10000 nM; on Acetylcholinesterase [2] it was 3700 nM.
The like results for `Cc1ccc(CN2CCC(Nc3nc(-c4ccc(C)cc4)c(-c4ccc(C)cc4)s3)CC2)cc1` were, in that order, 6030 nM and 1090 nM.
For the compound `N#Cc1ccccc1CN1CCC(C(=O)Nc2nc(-c3ccc(Cl)cc3)c(-c3ccc(Cl)cc3)s2)CC1`, the values for the half-maximal inhibitory concentration (IC50) at Cholinesterase and at Acetylcholinesterase [2] were 1590 nM and 1770 nM, respectively.
The like results for `O=C(Nc1nc(-c2ccc(Cl)cc2)c(-c2ccc(Cl)cc2)s1)C1CCN(Cc2ccccc2C(F)(F)F)CC1` were, in that order, 3360 nM and 2770 nM.
`COc1cc2c(cc1OC)C(=O)C(CC1CCN(Cc3ccccc3)CC1)C2` (stereo unspecified) [DONEPEZIL] showed a viability at 24 h, 80 µM in the data set “in vitro [3]” (sh-sy5y) of 92.3%. This compound displayed a viability at 24 h, 40 µM in “in vitro [4]” (sh-sy5y) of 96.9%.
On to `COc1ccc(-c2nc(NC(=O)C3CCN(Cc4ccc(F)cc4)CC3)sc2-c2ccc(OC)cc2)cc1`, for which the figures for the IC50 on Cholinesterase and on Acetylcholinesterase [2] were 1730 nM and 1160 nM, respectively.
For `Cc1ccccc1CN1CCC(C(=O)Nc2nc(-c3ccc(Cl)cc3)c(-c3ccc(Cl)cc3)s2)CC1`, in that order: 1040 nM and 1100 nM.
For `Cc1ccc(-c2nc(NC(=O)C3CCN(Cc4ccc(C(F)(F)F)cc4)CC3)sc2-c2ccc(C)cc2)cc1`, the values for the IC50 at Cholinesterase and on Acetylcholinesterase [2] were 2780 nM and above 10000 nM, respectively.
For the compound `COc1ccc(-c2nc(NC(=O)C3CCN(Cc4ccccc4C)CC3)sc2-c2ccc(OC)cc2)cc1`, the results for the IC50 against Cholinesterase and against Acetylcholinesterase [2] were 1850 nM and 1340 nM, respectively.
For `Cc1ccc(-c2nc(NC(=O)C3CCN(Cc4ccccc4C)CC3)sc2-c2ccc(C)cc2)cc1`, in that order: 1500 nM and above 10000 nM.
Take `Cc1ccc(-c2nc(NC(=O)C3CCN(Cc4cccc(F)c4)CC3)sc2-c2ccc(C)cc2)cc1`: the figures for the IC50 at Cholinesterase and on Acetylcholinesterase [2] were 1970 nM and above 10000 nM, respectively.
Consider `Cc1ccc(-c2nc(NC(=O)C3CCN(Cc4ccc(F)cc4Cl)CC3)sc2-c2ccc(C)cc2)cc1`, for which the results for the IC50 against Cholinesterase and at Acetylcholinesterase [2] were 1600 nM and above 10000 nM, respectively.
The like results for `Cc1ccc(-c2nc(NC(=O)C3CCN(Cc4c(F)cccc4Cl)CC3)sc2-c2ccc(C)cc2)cc1` were, in that order, 2770 nM and 2880 nM.
For `Fc1ccc(CN2CCC(CNc3nc(-c4ccc(Cl)cc4)c(-c4ccc(Cl)cc4)s3)CC2)c(C(F)(F)F)c1`, in that order: 3300 nM and 1240 nM.
Take `Cc1ccc(-c2nc(NC(=O)C3CCN(Cc4ccccc4C(F)(F)F)CC3)sc2-c2ccc(C)cc2)cc1`: the IC50 on Cholinesterase turned out to be 1880 nM; at Acetylcholinesterase [2] it was 7570 nM.
As to `Clc1ccc(-c2nc(NC3CCN(Cc4ccccc4)CC3)sc2-c2ccc(Cl)cc2)cc1`, the 50% inhibitory concentration (IC50) against Cholinesterase turned out to be 3300 nM; at Acetylcholinesterase [2], 1380 nM.
Turning to `Cc1ccc(-c2nc(NC3CCN(Cc4ccccc4)CC3)sc2-c2ccc(C)cc2)cc1`, the half-inhibitory concentration (IC50) is 3590 nM on Cholinesterase and 1280 nM on Acetylcholinesterase [2].
Consider `O=C(Nc1nc(-c2ccc(Cl)cc2)c(-c2ccc(Cl)cc2)s1)C1CCN(Cc2ccc(OC(F)(F)F)cc2)CC1`, for which the concentration for half-maximal inhibition (IC50) is 2180 nM at Cholinesterase and 1380 nM against Acetylcholinesterase [2].
`COc1ccc(-c2nc(NC(=O)C3CCN(Cc4ccc(F)cc4C(F)(F)F)CC3)sc2-c2ccc(OC)cc2)cc1`: the figures for the IC50 against Cholinesterase and against Acetylcholinesterase [2] were 1780 nM and 1230 nM, respectively.
With `COc1ccc(-c2nc(NC(=O)C3CCN(Cc4cc(F)cc(F)c4)CC3)sc2-c2ccc(OC)cc2)cc1`, the half-inhibitory concentration (IC50) was above 10000 nM against Cholinesterase and 2450 nM against Acetylcholinesterase [2].
For `COc1ccc(CN2CCC(Nc3nc(-c4ccc(Cl)cc4)c(-c4ccc(Cl)cc4)s3)CC2)cc1`, in that order: 1570 nM and 1120 nM.
The like results for `Cc1ccc(-c2nc(NC(=O)C3CCN(Cc4ccc([N+](=O)[O-])cc4)CC3)sc2-c2ccc(C)cc2)cc1` were, in that order, above 10000 nM and 2320 nM.
The like results for `Cc1ccc(-c2nc(NC(=O)C3CCN(Cc4cc(F)cc(F)c4)CC3)sc2-c2ccc(C)cc2)cc1` were, in that order, 3510 nM and 2500 nM.
Consider `N#Cc1ccc(CN2CCC(Nc3nc(-c4ccc(Cl)cc4)c(-c4ccc(Cl)cc4)s3)CC2)cc1`, for which the figures for the concentration for half-maximal inhibition (IC50) against Cholinesterase and against Acetylcholinesterase [2] were 1720 nM and 1020 nM, respectively.
